Assay results published in patent US9914730B2, “Azaquinazoline inhibitors of Atypical protein Kinase C” (Ignyta, Inc., priority 2012, dated 2018).

Target: T1, full-length human PKCι (Homo sapiens, UniProt P41743)
T1 construct: Recombinant, full-length human PKCι expressed in Sf21 insect cells is also commercially available; purchased; host or cells: Sf21 insect cells
T1 sequence (P41743 1-596): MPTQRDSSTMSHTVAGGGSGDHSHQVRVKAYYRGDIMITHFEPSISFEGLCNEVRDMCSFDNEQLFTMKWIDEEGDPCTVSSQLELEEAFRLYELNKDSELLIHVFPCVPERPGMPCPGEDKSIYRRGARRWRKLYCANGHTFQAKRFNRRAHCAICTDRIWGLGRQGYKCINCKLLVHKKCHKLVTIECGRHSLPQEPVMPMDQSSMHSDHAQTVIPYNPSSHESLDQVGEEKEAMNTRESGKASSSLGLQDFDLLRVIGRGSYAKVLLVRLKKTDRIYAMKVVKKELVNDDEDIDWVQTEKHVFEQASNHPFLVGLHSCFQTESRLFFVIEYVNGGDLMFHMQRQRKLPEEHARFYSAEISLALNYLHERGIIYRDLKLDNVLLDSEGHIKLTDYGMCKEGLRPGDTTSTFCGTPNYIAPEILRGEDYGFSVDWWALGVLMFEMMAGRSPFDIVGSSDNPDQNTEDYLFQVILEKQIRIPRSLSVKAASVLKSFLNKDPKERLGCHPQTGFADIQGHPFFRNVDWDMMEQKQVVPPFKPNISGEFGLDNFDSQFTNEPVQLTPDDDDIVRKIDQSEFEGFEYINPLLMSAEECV
Assay: PKCι IC50 IMAP assay, full-length PKCι at 150 μM ATP
Format: biochemical
Conditions: read-out: IC50 in IMAP assay against full length PKCi at 150 μM ATP
Method in brief: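 IC50 from IMAP FP (ex 485/em 530 nm) after 60 min room-temperature reaction in pH 7.5 tris buffer with 9 mM MgCl2 and 0.9 mM DTT. Enzyme: full-length Sf21-expressed PKCι (~15 pM); ATP 150 μM, five times KM^APP; FAM-labelled peptide 100 nM; DMSO 4%.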

Row | Compound | IC50 [nM]
1 | Fc1cc(C2CC2)ccc1Nc1cc(-c2nc(N3CCNCC3)c3c(C4CC4)cncc3n2)ccn1 [Example 641, (4-Cyclopropyl-2-fluoro-phenyl)-[4-(5-cyclopropyl-4-piperazin-1-yl-pyrido[3,4-d]pyrimidin-2-yl)-pyridin-2-yl]-amine] | < 100
2 | COc1cncc2nc(-c3ccnc(Nc4ncccc4C)c3)nc(N3CCNCC3)c12 [Example 410, [4-(5-Methoxy-4-piperazin-1-yl-pyrido[3,4-d]pyrimidin-2-yl)-pyridin-2-yl]-(3-methyl-pyridin-2-yl)-amine] | 100 to 1000
3 | N[C@H](CNc1nc(-c2ccncc2)nc2c(-c3ccccc3)nccc12)Cc1ccccc1 [Example 90, N-[(2S)-2-amino-3-phenylpropyl]-8-phenyl-2-(pyridin-4-yl)pyrido[3,4-d]-pyrimidin-4-amine] | 100 to 1000
4 | COc1cncc2nc(-c3ccnc(NC(=O)Cc4cccc(Cl)c4)c3)nc(N3CCNCC3)c12 [Example 370, 2-(3-Chloro-phenyl)-N-[4-(5-methoxy-4-piperazin-1-yl-pyrido[3,4-d]pyrimidin-2-yl)-pyridin-2-yl]-acetamide] | < 100
5 | Cc1ncccc1Nc1cc(-c2nc(N3CCNCC3)c3c(C4CC4)cncc3n2)ccn1 [Example 544, [4-(5-Cyclopropyl-4-piperazin-1-yl-pyrido[3,4-d]pyrimidin-2-yl)-pyridin-2-yl]-(2-methyl-pyridin-3-yl)-amine] | < 100
6 | COc1cccc(Nc2cc(-c3nc(N4CC[C@H](CO)C4)c4c(OC)cncc4n3)ccn2)n1 [Example 471, ((S)-1-{5-Methoxy-2-[2-(6-methoxy-pyridin-2-ylamino)-pyridin-4-yl]-pyrido[3,4-d]pyrimidin-4-yl}-pyrrolidin-3-yl)-methanol] | 1000 to 10000
7 | CC(C)NC(=O)C1CCN(c2nc(-c3ccncc3)nc3cnccc23)CC1 [Example 55, N-(propan-2-yl)-1-[2-(pyridin-4-yl)-pyrido[3,4-d]-pyrimidin-4-yl]-piperidine-4-carboxamide] | 1000 to 10000
8 | Fc1ncc(C2CC2)c2c(N3CCNCC3)nc(-c3ccnc4[nH]c(C(F)(F)F)cc34)nc12 [Example 2102, 5-Cyclopropyl-8-fluoro-4-piperazin-1-yl-2-(2-trifluoromethyl-1H-pyrrolo[2,3-b]pyridin-4-yl)-pyrido[3,4-d]pyrimidine] | < 100
9 | c1ccn2nc(Nc3cc(-c4nc(N5CCNCC5)c5c(C6CC6)cncc5n4)ccn3)nc2c1 [Example 743, [4-(5-Cyclopropyl-4-piperazin-1-yl-pyrido[3,4-d]pyrimidin-2-yl)-pyridin-2-yl]-[1,2,4]triazolo[1,5-a]pyridin-2-yl-amine] | < 100
10 | COc1cncc2nc(-c3ccncc3)nc(N3CCN[C@@H](C(F)c4ccccc4)C3)c12 (stereo partly drawn) [Example 74, (3R)-3-[fluoro(phenyl)-methyl]-1-[5-methoxy-2-(pyridin-4-yl)-pyrido[3,4-d]-pyrimidin-4-yl]-piperazine] | < 100
11 | FC(F)(F)C1CN(c2nc(-c3ccnc4[nH]ccc34)nc3cncc(C4CC4)c23)CCN1 (centres unmarked) [Example 1218, 5-Cyclopropyl-2-(1H-pyrrolo[2,3-b]pyridin-4-yl)-4-(3-trifluoromethyl-piperazin-1-yl)-pyrido[3,4-d]pyrimidine] | < 100
12 | COc1cncc2nc(-c3ccncc3)nc(N[C@@H]3CCNC3)c12 [Example 2, (5-Methoxy-2-pyridin-4-yl-pyrido[3,4-d]pyrimidin-4-yl)-(R)-pyrrolidin-3-yl-amine] | 100 to 1000
13 | CC1CN(c2nc(-c3ccnc(Nc4c(F)cccc4F)c3)nc3cncc(C4CC4)c23)CC(C)N1 (centres unmarked) [Example 787, {4-[5-Cyclopropyl-4-(3,5-dimethyl-piperazin-1-yl)-pyrido[3,4-d]pyrimidin-2-yl]-pyridin-2-yl}-(2,6-difluoro-phenyl)-amine] | < 100
14 | O[C@@H]1CCN(c2nc(-c3ccnc(Nc4ccccc4)c3)nc3cncc(C4CC4)c23)C[C@H]1O (racemic) [Example 676, (+/−)-(trans)-1-[5-Cyclopropyl-2-(2-phenylamino-pyridin-4-yl)-pyrido[3,4-d]pyrimidin-4-yl]-piperidine-3,4-diol] | 100 to 1000
15 | Fc1ccc(OC(F)(F)F)cc1Nc1cc(-c2nc(N3CCNCC3)c3c(C4CC4)cncc3n2)ccn1 [Example 555, [4-(5-Cyclopropyl-4-piperazin-1-yl-pyrido[3,4-d]pyrimidin-2-yl)-pyridin-2-yl]-(2-fluoro-5-trifluoromethoxy-phenyl)-amine] | 100 to 1000
16 | C[C@@H](Nc1cc(-c2nc(N3CCNCC3)c3c(C4CC4)cncc3n2)ccn1)C1CC1 [Example 810, ((R)-1-Cyclopropyl-ethyl)-[4-(5-cyclopropyl-4-piperazin-1-yl-pyrido[3,4-d]pyrimidin-2-yl)-pyridin-2-yl]-amine] | < 100
17 | COc1cncc2nc(N3CCOCC3)nc(N3CCN[C@@H](COc4ccccc4)C3)c12 [Example 1006, 5-Methoxy-2-morpholin-4-yl-4-((R)-3-phenoxymethyl-piperazin-1-yl)-pyrido[3,4-d]pyrimidine] | 100 to 1000
18 | CC1(C)CN(c2nc(-c3ccnc(Nc4ncccc4F)c3)nc3cncc(C4CC4)c23)CCN1 [Example 840, {4-[5-Cyclopropyl-4-(3,3-dimethyl-piperazin-1-yl)-pyrido[3,4-d]pyrimidin-2-yl]-pyridin-2-yl}-(3-fluoro-pyridin-2-yl)-amine] | < 100
19 | C[C@@H](Nc1cc(-c2nc(N3CCNCC3)c3c(C4CC4)cncc3n2)ccn1)c1ccccc1 [Example 586, [4-(5-Cyclopropyl-4-piperazin-1-yl-pyrido[3,4-d]pyrimidin-2-yl)-pyridin-2-yl]-((R)-1-phenyl-ethyl)-amine] | < 100
20 | c1cc(-c2nc(N3CCSCC3)c3ccncc3n2)ccn1 [Example 24, 4-[2-(pyridin-4-yl)pyrido[3,4-d]-pyrimidin-4-yl]-thiomorpholine] | 10000 to 40000
21 | N[C@H](CNc1nc(-c2ccncc2)nc2c(-c3cccc(Cl)c3)nccc12)Cc1ccccc1 [Example 102, N-[(2S)-2-amino-3-phenylpropyl]-8-(3-chloro-phenyl)-2-(pyridin-4-yl)-pyrido[3,4-d]-pyrimidin-4-amine] | 100 to 1000
22 | O[C@H](CNc1nc(-c2ccncc2)nc2cnccc12)Cc1ccccc1 [Example 15, (2S)-1-phenyl-3-{[2-(pyridin-4-yl)pyrido[3,4-d]-pyrimidin-4-yl]-amino}propan-2-ol] | 1000 to 10000
23 | COc1cncc2nc(-c3ccnc(Nc4ccccc4)c3)nc(N3CCC(C)(O)CC3)c12 [Example 223, 1-[5-Mcthoxy-2-(2-phenylamino-pyridin-4-yl)-pyrido[3,4-d]pyrimidin-4-yl]-4-methyl-piperidin-4-ol] | 1000 to 10000
24 | (3-Chloro-2,6- difluoro-phenyl)- [4-(5-cyclopropyl- 4-piperazin-1-yl- pyrido[3,4- d]pyrimidin-2-yl)- pyridin-2-yl]- amine [Example 649] | < 100
25 | N#Cc1cccc(Nc2cc(-c3nc(N4CCNCC4)c4c(C5CC5)cncc4n3)ccn2)n1 [Example 746, 6-[4-(5-Cyclopropyl-4-piperazin-1-yl-pyrido[3,4-d]pyrimidin-2-yl)-pyridin-2-ylamino]-pyridine-2-carbonitrile] | < 100
26 | c1cc(-c2nc(N[C@@H]3CCOC3)c3ccncc3n2)ccn1 [Example 42, N-[(3R)-oxolan-3-yl]-2-(pyridin-4-yl)-pyrido[3,4-d]-pyrimidin-4-amine] | 10000 to 40000
